Results taken from publication PMC7401714 (Japanese Journal of Clinical Oncology, 2020).

Legend:
Phase I = assay type: in vivo, human; conditions: for T lag / Tmax: median, [range]; for Tmax: human, in vivo, T max
[1] = test system: Japanese patients with advanced solid tumors; experiment: Phase I dose escalation; conditions: for Patients with TEAE leading to death: primary reason for death was disease progression
advanced solid tumors = experiment: Phase I; assay type: in vivo, human; conditions: for PFS, single patient: 500 mg once daily
[2] = test system: patients with advanced solid tumors; conditions: first-in-man trial outside of Japan; cited from earlier work

CN1CCC(COc2cnc(-c3cccc(Cn4nc(-c5cccc(C#N)c5)ccc4=O)c3)nc2)CC1 [Tepotinib]
Caverage at steady state, all patients (Phase I; 500 mg once daily): > 700 ng/mL
T lag (Phase I; Day 1, 215 mg once daily (n = 3)): 1.95 [1.95–1.97] h
T lag (Phase I; Day 1, 300 mg once daily (n = 3)): 0.97 [0.97–2.00] h
T lag (Phase I; Day 1, 500 mg once daily (n = 6)): 0.99 [0.47–1.98] h
dose proportionality of exposure (Cmax, AUC0–t) (Phase I; after the first and multiple oral doses, 215–500 mg): less than dose proportional
Tmax (Phase I; 215 mg, Day 1, 215 mg once daily (n = 3)): 8 h
Tmax (Phase I; 215 mg, Day 14, 215 mg once daily (n = 3)): 8 h
Tmax (Phase I; 300 mg, Day 1, 300 mg once daily (n = 3)): 8 h
Tmax (Phase I; 300 mg, Day 14, 300 mg once daily (n = 3)): 9.9 h
Tmax (Phase I; 500 mg, Day 1, 500 mg once daily (n = 6)): 10 h
Tmax (Phase I; 500 mg, Day 14, 500 mg once daily (n = 5)): 4.1 h
trough concentrations between cycles 1 and 4 (Phase I; individual patients): remained stable
Patients with TEAE leading to treatment discontinuation ([1]; 215 mg once daily (n = 3)): 0 n (%)
Patients with any TEAE ([1]; 215 mg once daily (n = 3)): 2 n (%)
Patients with any grade ≥3 TEAE ([1]; 215 mg once daily (n = 3)): 0 n (%)
Patients with any related grade ≥3 TEAE ([1]; 215 mg once daily (n = 3)): 0 n (%)
Patients with any related serious TEAE ([1]; 215 mg once daily (n = 3)): 0 n (%)
Patients with any serious TEAE ([1]; 215 mg once daily (n = 3)): 0 n (%)
Patients with any treatment-related TEAE ([1]; 215 mg once daily (n = 3)): 1 n (%)
Patients with related TEAE leading to death ([1]; 215 mg once daily (n = 3)): 0 n (%)
Patients with related TEAE of special interest (lipase or amylase elevation of grade ≥3) ([1]; 215 mg once daily (n = 3)): 0 n (%)
Tepotinib-related TEAE, Grade 3/4: Hyponatremia (grade 3) ([1]; 215 mg once daily (n = 3)): 0 n (%)
Tepotinib-related TEAE, Grade 3/4: Lipase increase (grade 4) ([1]; 215 mg once daily (n = 3)): 0 n (%)
Tepotinib-related TEAE, any grade: Acneiform dermatitis ([1]; 215 mg once daily (n = 3)): 0 n (%)
Tepotinib-related TEAE, any grade: Amylase increase ([1]; 215 mg once daily (n = 3)): 0 n (%)
Tepotinib-related TEAE, any grade: Decreased appetite ([1]; 215 mg once daily (n = 3)): 1 n (%)
Tepotinib-related TEAE, any grade: Dysgeusia ([1]; 215 mg once daily (n = 3)): 1 n (%)
Tepotinib-related TEAE, any grade: Fatigue ([1]; 215 mg once daily (n = 3)): 1 n (%)
Tepotinib-related TEAE, any grade: Hypoalbuminemia ([1]; 215 mg once daily (n = 3)): 0 n (%)
Tepotinib-related TEAE, any grade: Hyponatremia ([1]; 215 mg once daily (n = 3)): 0 n (%)
Tepotinib-related TEAE, any grade: Lipase increase ([1]; 215 mg once daily (n = 3)): 0 n (%)
Tepotinib-related TEAE, any grade: Nausea ([1]; 215 mg once daily (n = 3)): 0 n (%)
Tepotinib-related TEAE, any grade: Serum creatinine increase ([1]; 215 mg once daily (n = 3)): 0 n (%)
Tepotinib-related TEAE, any grade: Stomatitis ([1]; 215 mg once daily (n = 3)): 0 n (%)
Tepotinib-related TEAE, any grade: Vomiting ([1]; 215 mg once daily (n = 3)): 0 n (%)
Patients with TEAE leading to death ([1]; 215 mg once daily (n = 3)): 0 n (%)
Patients with TEAE leading to treatment discontinuation ([1]; 300 mg once daily (n = 3)): 0 n (%)
Patients with any TEAE ([1]; 300 mg once daily (n = 3)): 3 n (%)
Patients with any grade ≥3 TEAE ([1]; 300 mg once daily (n = 3)): 3 n (%)
Patients with any related grade ≥3 TEAE ([1]; 300 mg once daily (n = 3)): 0 n (%)
Patients with any related serious TEAE ([1]; 300 mg once daily (n = 3)): 0 n (%)
Patients with any serious TEAE ([1]; 300 mg once daily (n = 3)): 3 n (%)
Patients with any treatment-related TEAE ([1]; 300 mg once daily (n = 3)): 1 n (%)
Patients with related TEAE leading to death ([1]; 300 mg once daily (n = 3)): 0 n (%)
Patients with related TEAE of special interest (lipase or amylase elevation of grade ≥3) ([1]; 300 mg once daily (n = 3)): 0 n (%)
Tepotinib-related TEAE, Grade 3/4: Hyponatremia (grade 3) ([1]; 300 mg once daily (n = 3)): 0 n (%)
Tepotinib-related TEAE, Grade 3/4: Lipase increase (grade 4) ([1]; 300 mg once daily (n = 3)): 0 n (%)
Tepotinib-related TEAE, any grade: Acneiform dermatitis ([1]; 300 mg once daily (n = 3)): 0 n (%)
Tepotinib-related TEAE, any grade: Amylase increase ([1]; 300 mg once daily (n = 3)): 0 n (%)
Tepotinib-related TEAE, any grade: Decreased appetite ([1]; 300 mg once daily (n = 3)): 0 n (%)
Tepotinib-related TEAE, any grade: Dysgeusia ([1]; 300 mg once daily (n = 3)): 0 n (%)
Tepotinib-related TEAE, any grade: Fatigue ([1]; 300 mg once daily (n = 3)): 1 n (%)
Tepotinib-related TEAE, any grade: Hypoalbuminemia ([1]; 300 mg once daily (n = 3)): 0 n (%)
Tepotinib-related TEAE, any grade: Hyponatremia ([1]; 300 mg once daily (n = 3)): 0 n (%)
Tepotinib-related TEAE, any grade: Lipase increase ([1]; 300 mg once daily (n = 3)): 0 n (%)
Tepotinib-related TEAE, any grade: Nausea ([1]; 300 mg once daily (n = 3)): 0 n (%)
Tepotinib-related TEAE, any grade: Serum creatinine increase ([1]; 300 mg once daily (n = 3)): 0 n (%)
Tepotinib-related TEAE, any grade: Stomatitis ([1]; 300 mg once daily (n = 3)): 0 n (%)
Tepotinib-related TEAE, any grade: Vomiting ([1]; 300 mg once daily (n = 3)): 0 n (%)
Patients with TEAE leading to death ([1]; 300 mg once daily (n = 3)): 0 n (%)
Patients with TEAE leading to treatment discontinuation ([1]; 500 mg once daily (n = 6)): 0 n (%)
Patients with any TEAE ([1]; 500 mg once daily (n = 6)): 6 n (%)
Patients with any grade ≥3 TEAE ([1]; 500 mg once daily (n = 6)): 4 n (%)
Patients with any related grade ≥3 TEAE ([1]; 500 mg once daily (n = 6)): 3 n (%)
Patients with any related serious TEAE ([1]; 500 mg once daily (n = 6)): 0 n (%)
Patients with any serious TEAE ([1]; 500 mg once daily (n = 6)): 1 n (%)
Patients with any treatment-related TEAE ([1]; 500 mg once daily (n = 6)): 3 n (%)
Patients with related TEAE leading to death ([1]; 500 mg once daily (n = 6)): 0 n (%)
Patients with related TEAE of special interest (lipase or amylase elevation of grade ≥3) ([1]; 500 mg once daily (n = 6)): 2 n (%)
Tepotinib-related TEAE, Grade 3/4: Hyponatremia (grade 3) ([1]; 500 mg once daily (n = 6)): 1 n (%)
Tepotinib-related TEAE, Grade 3/4: Lipase increase (grade 4) ([1]; 500 mg once daily (n = 6)): 2 n (%)
Tepotinib-related TEAE, any grade: Acneiform dermatitis ([1]; 500 mg once daily (n = 6)): 1 n (%)
Tepotinib-related TEAE, any grade: Amylase increase ([1]; 500 mg once daily (n = 6)): 2 n (%)
Tepotinib-related TEAE, any grade: Decreased appetite ([1]; 500 mg once daily (n = 6)): 0 n (%)
Tepotinib-related TEAE, any grade: Dysgeusia ([1]; 500 mg once daily (n = 6)): 1 n (%)
Tepotinib-related TEAE, any grade: Fatigue ([1]; 500 mg once daily (n = 6)): 0 n (%)
Tepotinib-related TEAE, any grade: Hypoalbuminemia ([1]; 500 mg once daily (n = 6)): 2 n (%)
Tepotinib-related TEAE, any grade: Hyponatremia ([1]; 500 mg once daily (n = 6)): 1 n (%)
Tepotinib-related TEAE, any grade: Lipase increase ([1]; 500 mg once daily (n = 6)): 2 n (%)
Tepotinib-related TEAE, any grade: Nausea ([1]; 500 mg once daily (n = 6)): 1 n (%)
Tepotinib-related TEAE, any grade: Serum creatinine increase ([1]; 500 mg once daily (n = 6)): 1 n (%)
Tepotinib-related TEAE, any grade: Stomatitis ([1]; 500 mg once daily (n = 6)): 1 n (%)
Tepotinib-related TEAE, any grade: Vomiting ([1]; 500 mg once daily (n = 6)): 1 n (%)
Patients with TEAE leading to death ([1]; 500 mg once daily (n = 6)): 1 n (%)
dose-limiting toxicities (DLTs) ([1]; 215, 300 and 500 mg once daily, cycle 1): No DLTs
Patients with TEAE leading to treatment discontinuation ([1]; Total, all doses (n = 12)): 0 n (%)
Patients with any TEAE ([1]; Total, all doses (n = 12)): 11 (91.7) n (%)
Patients with any grade ≥3 TEAE ([1]; Total, all doses (n = 12)): 7 (58.3) n (%)
Patients with any related grade ≥3 TEAE ([1]; Total, all doses (n = 12)): 3 (25.0) n (%)
Patients with any related serious TEAE ([1]; Total, all doses (n = 12)): 0 n (%)
Patients with any serious TEAE ([1]; Total, all doses (n = 12)): 4 (33.3) n (%)
Patients with any treatment-related TEAE ([1]; Total, all doses (n = 12)): 5 (41.7) n (%)
Patients with related TEAE leading to death ([1]; Total, all doses (n = 12)): 0 n (%)
Patients with related TEAE of special interest (lipase or amylase elevation of grade ≥3) ([1]; Total, all doses (n = 12)): 2 (16.7) n (%)
Tepotinib-related TEAE, Grade 3/4: Hyponatremia (grade 3) ([1]; Total, all doses (n = 12)): 1 (8.3) n (%)
Tepotinib-related TEAE, Grade 3/4: Lipase increase (grade 4) ([1]; Total, all doses (n = 12)): 2 (16.7) n (%)
Tepotinib-related TEAE, any grade: Acneiform dermatitis ([1]; Total, all doses (n = 12)): 1 (8.3) n (%)
Tepotinib-related TEAE, any grade: Amylase increase ([1]; Total, all doses (n = 12)): 2 (16.7) n (%)
Tepotinib-related TEAE, any grade: Decreased appetite ([1]; Total, all doses (n = 12)): 1 (8.3) n (%)
Tepotinib-related TEAE, any grade: Dysgeusia ([1]; Total, all doses (n = 12)): 2 (16.7) n (%)
Tepotinib-related TEAE, any grade: Fatigue ([1]; Total, all doses (n = 12)): 2 (16.7) n (%)
Tepotinib-related TEAE, any grade: Hypoalbuminemia ([1]; Total, all doses (n = 12)): 2 (16.7) n (%)
Tepotinib-related TEAE, any grade: Hyponatremia ([1]; Total, all doses (n = 12)): 1 (8.3) n (%)
Tepotinib-related TEAE, any grade: Lipase increase ([1]; Total, all doses (n = 12)): 2 (16.7) n (%)
Tepotinib-related TEAE, any grade: Nausea ([1]; Total, all doses (n = 12)): 1 (8.3) n (%)
Tepotinib-related TEAE, any grade: Serum creatinine increase ([1]; Total, all doses (n = 12)): 1 (8.3) n (%)
Tepotinib-related TEAE, any grade: Stomatitis ([1]; Total, all doses (n = 12)): 1 (8.3) n (%)
Tepotinib-related TEAE, any grade: Vomiting ([1]; Total, all doses (n = 12)): 1 (8.3) n (%)
Patients with TEAE leading to death ([1]; Total, all doses (n = 12)): 1 (8.3) n (%)
vital signs and other safety observations ([1]; all doses): No clinically relevant abnormalities
patients with tepotinib-related TEAEs of any grade ([1]; all doses (n = 12)): 41.7%
median PFS (advanced solid tumors; all patients (n = 12), 90% CI): 1.38 (90% CI: 1.15–1.38) months
patients with BOR of disease progression (advanced solid tumors; nine of 12 patients overall): 75%
patients with BOR of stable disease (SD) ≥12 weeks (advanced solid tumors; of 12 patients, both treated with 500 mg once daily): 16.7%
PFS, single patient (advanced solid tumors; patient with urachal cancer (MET status not evaluable)): 12.9 months
PFS, single patient (advanced solid tumors; patient, MET-expressing (IHC 2+) gastric cancer, four prior lines of chemotherapy): 4.6 months
dose up to which monotherapy was generally well tolerated [2]: ≤ 1400 mg once daily
maximum tolerated dose (MTD) [2]: could not be established
